A short description of the assay: MIC of test compounds against various organisms. The format is cell-based, S. aureus, S. pneumoniae, H. influenzae, E. faecalis. The protocol:
The MIC (μg/ml) of test compounds against various organisms was determined: S. aureus Oxford, S. aureus WCUH29, S. pneumoniae 1629, S. pneumoniae N1387, S. pneumoniae ERY 2, H. influenzae Q1, E. faecalis 7.

A value given as a limit tells only on which side of the number the result lay.

For the molecule `COc1ccc2nccc(NC(=O)N3CCN(CC(=O)c4ccc5c(c4)NC(=O)CO5)CC3)c2n1` [Example 12, 4-[2-Oxo-2-(3-oxo-3,4-dihydro-2H-benzo[1,4]oxazin-6-yl)-ethyl]piperazine-1-carboxylic acid (6-methoxy-[1,5]naphthyridin-4-yl)-amide.], the MIC is at most 0.25 mg/L.

For `COc1ccc2nccc(NC(=O)N3CCN(CC(=O)c4cnc5ccccc5n4)CC3)c2n1` [Example 10, 4-(2-Oxo-2-quinoxalin-2-yl-ethyl)-piperazine-1-carboxylic acid (6-methoxy-[1,5]naphthyridin-4-yl)-amide.], the MIC is at most 2 mg/L.

These data come from patent publication US20040077655A1, “Piperazine derivatives for treatment of bacterial infections” (priority 2000, published 2004).
